In article PMC6838151 (Scientific Reports, 2019):
Converted amounts (≈) assume the structure as drawn.

Key:
[1] = system: C. albicans B4; assay: microbe, parasite or virus in culture; assay type: cell-based, Candida albicans; conditions: Candida albicans, B4, 48 h
Source text: (§1) The C. albicans CAF2-1 (Genotype/Description: ura3Δ::imm434/URA3[89]) and DSY1050 (Genotype/Description: cdr1Δ::hisG/cdr1Δ::hisG/cdr2Δ::hisG/cdr2Δ::hisG/mdr1Δ::hisG-URA3-hisG/mdr1Δ::hisG[90]) strains used in this study were generous gift from D. Sanglard (Lausanne, Switzerland)[91],[92] whereas C. albicans B3 and Gu4 (Genotype/Description: clinical isolates fluconazole sensitive)[93]), B4 (Genotype/Description: Clinical isolate fluconazole resistant due to the overexpression of MDR1[93]) and Gu5 (Genotype/Description: Clinical isolate fluconazole resistant due to the overexpression of CDR1 and CDR2[93]) were a generous gift from prof. S. Milewski (Gdańsk, Poland)[94] and prof. J. Morschhäuser (Wurzburg, Germany)[93]. All strains were grown at 37 °C on Sabouraud medium (Biomerieux).
(§2) The antifungal activity was determined on the 96-well polystyrene microtiter plates (Sarstedt) according to Clinical and Laboratory Standards Institute M27-A3[95]. […] The compounds were dissolved in DMSO (10 mM) and then serially diluted in RPMI-1640 (ThermoFisher) medium to obtain the final concentration range. Inocula of all strains were prepared as suspensions with turbidity of 0.5 McFarland standard in sterile 0.85% saline and diluted in RPMI-1640. After inoculation, each well contained appr. 5 × 10^2 CFU/mL. The plates were cultivated for 48 h at 37 °C. Optical density was measured at A490nm using a microplate reader ASYS UVM 340 (Biogenet).

[2] = system: C. albicans CAF2-1; assay: microbe, parasite or virus in culture; assay type: cell-based, Candida albicans; conditions: Candida albicans, CAF21, 48 h
Source text: as §1, §2

[3] = system: C. albicans DSY1050; assay: microbe, parasite or virus in culture; assay type: cell-based, Candida albicans; conditions: Candida albicans, DSY1050, 48 h
Source text: as §1, §2

[4] = system: C. albicans Gu5; assay: microbe, parasite or virus in culture; assay type: cell-based, Candida albicans; conditions: Candida albicans, GU5, 48 h
Source text: as §1, §2

[5] = system: C. albicans B3; assay: microbe, parasite or virus in culture; assay type: cell-based; conditions: Candida albicans, B3, 48 h
Source text: as §1, §2

[6] = system: C. albicans Gu4; assay: microbe, parasite or virus in culture; assay type: cell-based; conditions: Candida albicans, GU4, 48 h
Source text: as §1, §2

[7] = system: C. albicans CAF2-1; assay: microbe, parasite or virus in culture; assay type: cell-based, Candida albicans; conditions: Candida albicans, CAF21, read-out: Viability of C. albicans CAF2-1
Method: The synergistic effects of KeOP/KeP with Flc were determined using the M27-A3 method with modifications. Flc and KeOP/KeP stock solutions in DMSO (10 mM) were (alone and simultaneously) diluted in RPMI-1640 medium to obtain final concentrations of^1/8; ^1/4; ^1/2; 1 × MIC50 towards C. albicans CAF2-1 strain in microdilution sterile plates (Sarstedt). Statistical significance analysis was performed using Student’s t-test ([…], unpaired) comparing viability in the presence of corresponding Flc concentrations with/without KeOP/KeP.

[8] = system: hASCs (human adipose-derived stromal cells); assay: Cytotoxicity IC50, TOX-8 resazurin assay, hASCs, 24 h; assay type: cell-based
Method: Human Adipose Tissue-derived Stem Cells (hASCs) were isolated from subcutaneous adipose tissue fragments harvested from non-diabetic female donors (age range 33–38, n = 2) during standard surgical procedure of total hip arthroplasty. Immediately after collection of tissue, the samples were placed in sterile tissue-transport medium (Hank’s Balanced Salt Solution (HBSS) supplemented with 1% Penicillin/Streptomycin/Amphotericin B solution (P/S/A). Mesenchymal stromal cell isolation was performed using enzymatic digestion of extracellular matrix with collagenase type I. Before digestion, tissue specimens were washed twice with HBSS and incubated in collagenase type I solution (1 mg/mL) at 37 °C for 40 min. The digest was subsequently centrifuged (1200 × g; 10 minutes; room temperature) and the cell pellet was resuspended in Dulbecco’s modified Eagle’s medium (DMEM) with Nutrient F-12 Ham, 10% of Fetal Bovine Serum (FBS), and 1% of P/S/A, transferred to a culture flask, and kept in culture under optimal conditions (37 °C in a humidified atmosphere of 5% CO2). The medium was refreshed every 2–3 days. At 80–90% confluence, the cells were passaged using trypsin solution (TrypLE Express, Life Technologies, California, USA). At passage 3, hASCs were collected and cellular phenotype was confirmed by the high expression of markers CD44, CD29, CD73, CD105 and low expression of CD45. Moreover, the trilineage differentiation capacity of ASCs was confirmed as previously described.
The IC50 values were determined using in vitro Toxicology TOX-8 Assay Kit (resazurin based) according to the manufacturer’s protocol. For this assay, cells were seeded in a 96-well plate at a density of 5 × 10^3 cells/well. The cells were pre-incubated in drug-free complete medium for 24 h before adding various concentrations of the compounds to be investigated. Stock solutions of the compounds were prepared in DMSO following serial dilutions in DMEM with Nutrient F-12 Ham complete medium. The cells exposure period was 24 h. After that time media were replaced with 10% v/v resazurin dye solution in fresh complete culture medium. Incubation was carried out for 2 h at 37 °C in the CO2 incubator. Reduction of the dye was measured spectrophotometrically at 600 nm and 690 nm reference wavelength (Epoch, Biotek). Absorbance measurements allowed the determination of viable treated cells relative to untreated controls using the inflection point of a dose-response graph. IC50 values were estimated as duplicates of triplicate readings in two independent experiments.

[9] = cited from earlier work

OC(Cn1cncn1)(Cn1cncn1)c1ccc(F)cc1F [Flc, fluconazole, reference compound]
MIC50 [1]: 50 µM (≈ 15.3 µg/mL) | MIC50 [2]: 6.25 µM (≈ 1.91 µg/mL) | MIC50 [3]: 0.78 µM (≈ 0.239 µg/mL) | MIC50 [4]: > 200 µM | MIC50 [5]: 6.25 µM (≈ 1.91 µg/mL) | MIC50 [6]: 6.25 µM (≈ 1.91 µg/mL) | viability at 0.78 µM [7]: 86.9 ± 7.84% | viability at 1.56 µM [7]: 71.3 ± 13.9% | viability at 3.13 µM [7]: 73.8 ± 4.35% | viability at 6.25 µM [7]: 38 ± 8.94% | IC50 (cytotoxicity, hASCs viability) [8]: not cytotoxic in the tested concentration range | fold less active in vitro than Ke [9]: approximately 16 fold
